Data from patent publication US20050187188A1, “Methods for the treatment of a traumatic central nervous system injury” (Emory University, priority 2000, published 2005).
“Also recorded” adds a separate entry of the source.

Assays:
cell death = settings: by attenuating release of inflammatory cytokines; cited from earlier work
contusion injury = settings: cited from earlier work
[1] = system: rats with medial frontal cortical contusions; test: Cerebral edema (brain tissue water content) after medial frontal cortex contusion, Example 1; assay type: in vivo, rat; settings: 4 mg/kg in cyclodextrin, i.p. 1 h and s.c. 6 h post-injury; 2, 24 and 72 hours; compared to vehicle
Description: Contusions to the medical frontal cortex (MFC) using a pneumatic impactor device were generated. Animals were anesthetized by injection of Nembutal (50 mg/kg, i.p) and placed in a stereotaxic apparatus, with body core temperature being maintained with a homeothermic heating blanket system. Using aseptic techniques, a midline incision was made in the scalp, and the fascia retracted to expose the cranium. A centered, bilateral craniotomy was made 3 mm anterior to bregma using a 6 mm diameter trephan. After the removal of the bone, the tip of the impactor was moved to AP:3.0; ML:0.0, checked for adequate clearance, retracted to its elevated position and lowered 3.5 mm DV, so it penetrated the cortex 2 mm. The contusion was made at a velocity of 2.25 m/s with a brain contact time of 0.5 seconds. Following this procedure, the wound cavity was thoroughly cleaned and all bleeding stopped before the fascia and scalp, were sutured closed. In all experiments, the rats' group identity was coded with regard to surgery and treatment to prevent experimenter bias during behavioral testing and later histological examination.
These experimental solutions were then diluted 1:1 with sterile water for a final concentration of HBC of 22.5%.
Sprague-Dawley male rats, approximately 90 days of age at the time of surgery, were used. Rats were housed in individual cages, with a 12:12 light:dark cycle. Food and water were provided ad libitum throughout the experiment. Control rats received sham surgeries and the rest received medial frontal cortical contusions as described in the general methods. The sham-operated controls were given vehicle (cyclodextrin). […] Treatment began one hour after the contusion was produced. […] Subsequently, a second subcutaneous injection 6 hours post-injury for absorption that is more gradual. […]
At 2, 24, and 72 hours the rats were anesthetized, decapitated, and their brains removed quickly from the cranial cavity. […] The brain was placed on a pre-weighed dish and the total weight of the sample was measured. […]

[2] = system: rats with bilateral contusions of the medial prefrontal cortex; test: Lesion size, ventricle and striatal area measurements after medial prefrontal cortex contusion, Example 6; assay type: in vivo, rat; settings: 4 mg/kg in peanut oil
Description: (§1) Male Sprague-Dawley rats (300 g) were housed individually in wire cages and kept on a reverse light-dark cycle (0800-2000 h). Animals were assigned to one of four groups: (1) lesion (n=7); (2) lesion +3 days progesterone (LP3; n=7); (3) lesion +5 days progesterone (LP5; n=7); and (4) Sham (n=8). All procedures involving animals conformed to guidelines set forth in the Guide for the Care and Use of Laboratory Animals (U.S. Department of Health and Human Services, Pub no. 85-23, 1985) and were approved by the Emory University Institutional Animal Care and Use Committee.
(§2) Bilateral contusions of the medial prefrontal cortex were created by a pneumatic impactor device as previously described. Briefly, rats were given anesthetized with ketamine/xylazine (90 mg/kg; 10 mg/kg) and placed in a stereotaxic apparatus. A craniectomy (diameter 6 mm) was made over the midline of the prefrontal cortex with its center 1.5 mm AP to bregma. After removal of the bone, the tip of the impactor (diameter 5 mm) was moved to +3.0 mm AP; 1.0 mm ML (from bregma), and checked for adequate clearance. Trauma was produced by pneumatically activating the piston to impact −2.0 mm DV (from dura) at a velocity of 3 m/s with a brain contact time of 0.5 seconds.
Progesterone was dissolved in peanut oil (Sigma; 4 mg/kg) and injections were given at 1 and 6 hours post-injury and then once per day for either 3 or 5 consecutive days. Control animals received injections of vehicle at similar time-points. Animals were coded with regard to surgery and treatment to prevent experimenter bias during behavioral testing and histological examination. […]
Mean area measurements of lesion size were quantified from sections at 15 rostral-caudal levels spaced 300 μm apart. […] Perimeters of the striatum and the lateral ventricles were also traced and mean areas were quantified from 7 rostral-caudal levels (300 μm apart).
(§3) Experienced individuals who were blind to treatment conditions of the study conducted all histological and behavioral analyses. All data were tested for normality and homoschedasticity before being analyzed by parametric analysis of variance (ANOVA). MWM results were analyzed using separate mixed-factorial (4 groups×5 days) analysis of variance (ANOVA) on each of the two 5-day testing periods (acquisition and retention respectively). Results of the BSN task were analyzed using the mixed-factorial ANOVA (4 groups×2 post-injury trials). […] Pearson r coefficients were calculated to determine whether significant correlations could be detected between histological (e.g., lesion size and cellular density) and behavioral parameters (e.g., acquisition and retention of the MWM task and measures of sensory neglect).

[3] = system: rats with bilateral contusions of the medial prefrontal cortex; test: Morris water maze task, Example 6; assay type: in vivo, rat
Description: as §1, §2
Progesterone was dissolved in peanut oil (Sigma; 4 mg/kg) and injections were given at 1 and 6 hours post-injury and then once per day for either 3 or 5 consecutive days. Control animals received injections of vehicle at similar time-points. Animals were coded with regard to surgery and treatment to prevent experimenter bias during behavioral testing and histological examination.
as §3
Beginning one week after surgery, spatial learning ability was assessed in the Morris water maze (MWM) task described previously. […] Animals were placed in the pool (nose facing the pool-wall) at one of four randomly determined starting positions (e.g.: N, S, E, W). […] Swim speed measures were recorded daily in order to delineate motor dysfunction from learning impairment.

traumatic brain injury = test: Sticker removal task (tactile adhesive removal) dose response, Example 7; assay type: in vivo, rat
Excerpt: On the 7th and 27th days post-injury, the rats will be assessed on their responsivity to focal somatosensory stimuli by requiring them to remove sticky paper from their forelimbs. Pairs of circular adhesive papers will be attached to the distal-radial areas of each forelimb and the animal will be returned to its home cage while the investigator holds the forepaws apart and keeps them away from the rat's mouth. The rats' latencies to remove the stimuli with their mouth will be recorded. The maximum length of a “test” trial will be 2 minutes, with each rat receiving four trials with 2 minute intertrial intervals.
Surgery to induce a traumatic brain injury was performed as outlined in Example 1. Behavior testing using the Morris Water Maize was performed as outlined in Example 1 and the methods for the tactical adhesive removal were performed as outlined in Example 4.

[4] = system: rats with bilateral contusions of the medial prefrontal cortex; test: Cell counts of Nissl-stained neurons (STR, GP, DMN, VMN), Example 6; assay type: in vivo, rat; settings: 4 mg/kg in peanut oil
Description: as §1
Bilateral contusions of the medial prefrontal cortex were created by a pneumatic impactor device as previously described. Briefly, rats were given anesthetized with ketamine/xylazine (90 mg/kg; 10 mg/kg) and placed in a stereotaxic apparatus. A craniectomy (diameter 6 mm) was made over the midline of the prefrontal cortex with its center 1.5 mm AP to bregma. […]
Cell counts were done on an Olympus BH-2 microscope equipped with an eyepiece micrometer grid (sample area=40 μm^2 at ×400 magnification). […] Only cells with neuronal nuclei and intact membranes were counted as neurons.
as §3

For `CC(=O)[C@H]1CC[C@H]2[C@@H]3CCC4=CC(=O)CC[C@]4(C)[C@H]3CC[C@]12C` [progesterone], the “cell death in vitro” value (cell death) is given as “prevent cell death in vitro”, the “post injury cerebral edema” value (contusion injury; following a contusion injury) is given as “reduces the severity of post injury cerebral edema” and the “neuronal loss in the LMDN” value (contusion injury; previous studies with this injury model) is given as “can significantly reduce this neuronal loss”. For the same compound, the cerebral edema [1] was “intermediate between injured controls and the allopregnanolone-treated injured rats”, the “enlargement of the lateral ventricles” value ([2]; 3 or 5 days) was “did not have any effect on this measure” and the mean striatal area ([2]; 3 or 5 days) was “No between-group differences”. The necrotic cavity formation ([2]; 3 days (LP3)) was “tended to be smaller than in the brains of injured animals”, the necrotic cavity formation ([2]; 5 days (LP5), P<0.05) was “significant reductions in overall necrotic cavity formation” and the “spatial learning performance, initial 5-day acquisition phase” value ([3]; 4 mg/kg in peanut oil, 3 or 5 days, all injured groups) was “displayed deficits in spatial learning performance as compared to control animals”. The “spatial learning performance, second 5-day trial block” value ([3]; 4 mg/kg in peanut oil, 5 days (LP5)) was “improved spatial learning performance”, the swim speed ([3]; 3 or 5 days, any day of testing) was “no between-group differences” and the “thigmotaxic (wall-hugging) swim patterns” value ([3]; 5 days (LP5), last 2 days of the second phase of MWM testing) was “reduction of thigmotaxic behavior”. The “sticker removal task (sensory neglect)” value (traumatic brain injury; high dose 32 mg/kg in cyclodextrin-containing carrier) was “degraded to lesion control levels”, the “sticker removal task (sensory neglect)” value (traumatic brain injury; low dose 8 mg/kg in cyclodextrin-containing carrier) was “initially produce behavioral recovery” and the “sticker removal task (sensory neglect)” value (traumatic brain injury; moderate dose 16 mg/kg in cyclodextrin-containing carrier) was “improved to sham levels by day 21 post-injury”. For the same compound, the “injury-induced neuronal loss (STR, GP, DMN, VMN)” value ([4]; 3 days (LP3)) was “significant reduction of injury-induced neuronal loss in all brain regions examined”, the “injury-induced neuronal loss (STR, GP, DMN, VMN)” value ([4]; 5 days (LP5)) was “significant reduction of injury-induced neuronal loss in all brain regions examined” and the “neuronal loss in the VMN” value ([4]; 5 days (LP5)) was “more effective than 3 days at attenuating neuronal loss in the VMN; also recorded: significant reductions in cell loss of the VMN”.
